Experimental findings from PMC7747594, “Protease-activated receptor-2 ligands reveal orthosteric and allosteric mechanisms of receptor inhibition” (Communications Biology, 2020) are described below.

Read-outs that look alike come from different tables or passages of the source.

Format in all cases: cell-based
In assay [1] the target is T1, hPAR2 (Homo sapiens, UniProt P55085).
T1 sequence (P55085 26-397): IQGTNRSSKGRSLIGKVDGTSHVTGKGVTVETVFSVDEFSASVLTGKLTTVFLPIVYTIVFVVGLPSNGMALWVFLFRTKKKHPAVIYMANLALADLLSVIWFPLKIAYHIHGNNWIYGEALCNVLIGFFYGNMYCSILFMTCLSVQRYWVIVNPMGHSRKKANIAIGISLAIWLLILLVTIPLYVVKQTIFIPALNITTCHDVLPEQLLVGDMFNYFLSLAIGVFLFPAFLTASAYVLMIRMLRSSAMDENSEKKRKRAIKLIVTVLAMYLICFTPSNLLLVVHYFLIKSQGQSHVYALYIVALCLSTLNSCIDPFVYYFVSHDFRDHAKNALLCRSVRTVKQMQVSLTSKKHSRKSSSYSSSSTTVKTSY
The experiment in a line: Ca^2+ flux assay (FLIPR), inhibition of SLIGRL-NH2 activation in 1321N1-hPAR2 cells. Here is the method:
Cells were loaded with Fluo-8 NW calcium dye (AAT Bioquest) for 30 min at 37 °C before compounds in Hank’s balanced salt solution (HBSS, ThermoFisher Scientific) with 20 mM HEPES (ThermoFisher Scientific), 0.1% bovine serum albumin (BSA, Sigma) and 0.5% DMSO were added and simultaneously evaluated for changes in intracellular [Ca^2+] using FLIPR TETRA (Molecular Devices) to detect agonism. For each concentration, the difference between the maximum peak Ca^2+ response and baseline response is reported. […] Antagonism experiments were also carried out on 1321N1-PAR2[WT], 1321N1-PAR2[F154A], and 1321N1-PAR2[G157C] as described. Experiments with trypsin in 1321N1-hPAR2 cells were performed in the presence of 1 µM Vorapaxar (Chemtronica) to remove any interference of PAR1 activity. […] Antagonism experiments for CHO-hPAR2 and HT-29 cells were performed in 96-well plates at 30,000 cells/well. Cells were loaded with Fluo-3 AM calcium dye (Sigma-Aldrich) for 60 min at 37 °C in HBSS with 1% FBS, 0.2% pluronic acid, 20 mM HEPES and 2.5 mM probenecid prior to the addition of antagonist. The antagonist was pre-incubated for 60 min at 37 °C followed by the addition of bovine trypsin (30 nM) at EC80. Intracellular [Ca^2+] flux was measured using FLIPR TETRA (Molecular Devices) and the difference between the maximum peak Ca^2+ response and baseline response is reported.
(§1) Binding data were analysed using the One site – Fit Ki model in GraphPad Prism 8 (GraphPad Software) to determine binding affinity. Pharmacology in vitro potency data was analysed with a 4-parameter logistic fit using the equation y = Bottom + (Top − Bottom)/[…] where y is the response, x is the 10-logarithm of the drug concentration, Bottom is no response and Top is full response in GraphPad Prism 8 or Genedata Screener (Genedata). pEC50 and pIC50 data are presented as mean ± standard error of the mean (s.e.m.) derived from the number of independent experiments stated. Schild slope analysis was calculated using Graphpad Prism 8 Gaddum/Schild EC50 global fitting (shared model parameters between all data sets) competitive model. […] Schild slope quantifies the shifts in agonist response in the presence of antagonist, a Schild slope of 1 indicates the antagonist is competitive and extra-sum-of-squares F-test (p < 0.05) was used to compare the calculated Schild slope against a hypothetical Schild slope of 1. […] The relative activity was calculated using (EmaxEC50’)/(Emax’EC50) with the Hill slope help constant at 1. EC50’ and Emax’ denote the EC50 and Emax in the absence of allosteric modulator, while EC50 and Emax denote those measured in the presence of allosteric modulator. When the Hill slope = 1, the relative activity plot approaches an asymptote corresponding to the estimate of the γ value.

The target in assay [2] is T1, hPAR2. Put plainly: pERK1/2 HTRF assay, inhibition of SLIGRL-NH2 in U2OS-hPAR2 cells. Here is the method:
Phosphorylation of ERK1/2 was measured in U2OS-hPAR2 cells using Phospho-ERK1/2 (Thr202/Tyr204) assay kit (64ERKPEH Cisbio) and the 2 plate manufacturer’s protocol with the following modifications. Cells were seeded in McCoy’s 5A media containing 10% FBS at 15,000 cells per well in 384-well plates and incubated overnight at 37 °C, 5% CO2. Antagonist compounds (30 µM–1 nM) were incubated with the cells for 30 min prior to the addition of agonist SLIGRL-NH2 (10 µM) at EC80 and further incubation for 5 min at 37 °C. The supernatant was removed from the wells and lysis buffer was added to the cells and incubated with shaking at room temperature for 30 min. The cell lysate was transferred into a small-volume 384-well plate containing detection antibodies and incubated for 4 h at room temperature in the dark. Plates were read for HTRF signal on PHERAstar (BMG LabTech). In addition, phosphorylation of ERK1/2 was measured in CHO-hPAR2 using AlphaLISA SureFire Ultra pERK1/2 (Thr202/Tyr204) (Perkin Elmer). Cells were seeded at a density of 2000 cells per well in a 384-well proxiplate and incubated overnight. […] After incubation, cell lysis buffer was added with shaking for 30 min. Antibodies and beads were added and incubated for 4 h at room temperature. AlphaLISA signal was measured using a PHERAstar (BMG LabTech).
as §1

In assay [3] the target is T2, rat PAR2 (Rattus norvegicus, UniProt Q63645).
T2 construct: a rat KNRK cell line with endogenous expression of rat PAR2; host or cells: rat KNRK cells
T2 sequence (Q63645 26-397): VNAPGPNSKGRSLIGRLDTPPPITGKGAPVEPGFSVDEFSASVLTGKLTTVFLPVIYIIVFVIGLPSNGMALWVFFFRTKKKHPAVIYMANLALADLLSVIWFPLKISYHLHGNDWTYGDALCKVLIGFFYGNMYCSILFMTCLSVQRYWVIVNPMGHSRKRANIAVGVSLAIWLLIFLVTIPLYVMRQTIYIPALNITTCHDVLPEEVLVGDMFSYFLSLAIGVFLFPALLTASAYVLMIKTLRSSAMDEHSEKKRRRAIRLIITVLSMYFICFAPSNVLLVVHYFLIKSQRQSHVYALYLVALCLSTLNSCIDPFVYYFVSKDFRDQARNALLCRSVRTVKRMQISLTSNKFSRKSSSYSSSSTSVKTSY
Put plainly: Ca^2+ flux assay, inhibition of SLIGRL-NH2 activation in rat KNRK cells.

Assay [4] deals with T1, hPAR2. The experiment in a line: β-arrestin-2 recruitment assay, inhibition of SLIGRL-NH2 in U2OS-hPAR2 cells. Here is the method:
β‐Arrestin-2 recruitment was measured in U2OS-hPAR2 cells using the DiscoverX assay kit, according to the manufacturer’s instructions. Briefly, cells were seeded in McCoy’s 5A media containing 10% FBS at 4000 cells per well in 384-well plates and incubated overnight at 37 °C, 5% CO2. Antagonist compounds (30 µM–1 nM) were incubated with the cells for 30 min prior to the addition of agonist SLIGRL-NH2 (10 µM) at EC80 and further incubation for 90 min at 37 °C. Working detection solution (12 µl) was then added to each well, incubated at room temperature in the dark for 60 min and the chemiluminescence signal read on the EnVision microplate reader (Perkin Elmer).
as §1

[5] abbreviates: SLIGRL-NH2, U2OS-hPAR2, mean ± s.e.m., read-out: pERK1/2 (hPAR2) pIC50 (converted).
[6] abbreviates: SLIGRL-NH2, rat PAR2 in KNRK cells, mean ± s.e.m., read-out: Ca^2+ flux (rPAR2) pIC50 (converted).
Setting [7] is: SLIGRL-NH2, U2OS-hPAR2, mean ± s.e.m., read-out: β-arrestin (hPAR2) pIC50 (converted).

As to `C[C@@H](C1CCCCC1)n1c(-c2cc3c(cc2Br)OCO3)nc2cc(C(=O)Nc3ccc(C#N)cc3)ccc21` [AZ3451], the IC50 in assay [1] (Ca^2+ assay, earlier manuscript version quoted by reviewer, read-out: IC50) was 2.8 nM; in assay [2] (setting [5]) it was 363 nM; in assay [3] (setting [6]), 3.16 nM; in assay [4] (setting [7]), 87.1 nM. The remaining activity at 0.001319 µM in assay [1] (log[compound], M -8.87976, individual data points, read-out: SLIGRL-NH2 Ca^2+ mobilisation, antagonist response, Fig 1c source data) stood at 77.4%. Moreover, the remaining activity at 0.37 µM in assay [2] (log[compound], M -6.4318, individual data points, read-out: SLIGRL-NH2 phosphorylation of ERK1/2, antagonist response, Fig 1e source data) amounted to 45.7%.

Regarding `C[C@@H](C1CCCCC1)n1c(-c2cc3c(cc2Br)OCO3)nc2cc(C(=O)Nc3ccncc3)ccc21` [AZ2623], the IC50 in assay [1] (SLIGRL-NH2, 1321N1-hPAR2 cells, mean ± s.e.m., read-out: Ca^2+ flux (hPAR2) pIC50 (converted)) is 5.01 nM; in assay [2] (setting [5]), 794 nM; in assay [3] (setting [6]) it was 5.01 nM; in assay [4] (setting [7]) it was 490 nM.

With `CCCc1cc(F)ccc1C(O)c1ncc[nH]1` (stereo not shown) [AZ8838], the IC50 was 2000 nM in assay [1], 2000 nM in assay [2], 5010 nM in assay [3] and 794 nM in assay [4]. Besides, in assay [1] (read-out: SLIGRL-NH2 Ca^2+ mobilisation, antagonist response, Fig 1c source data, log[compound], M -5.88008, individual data points), the remaining activity at 1.318 µM is 77.3%. Further, the remaining activity at 0.4168 µM in assay [1] (read-out: SLIGRL-NH2 Ca^2+ mobilisation, antagonist response, Fig 1c source data, log[compound], M -6.38007, individual data points) was 83%. Further, the remaining activity at 0.1318 µM in assay [1] (read-out: SLIGRL-NH2 Ca^2+ mobilisation, antagonist response, Fig 1c source data, log[compound], M -6.88008, individual data points) came out at 101%. Besides, the remaining activity at 0.04169 µM in assay [1] (read-out: SLIGRL-NH2 Ca^2+ mobilisation, antagonist response, Fig 1c source data, log[compound], M -7.37997, individual data points) was 90.3%. For the same compound, the remaining activity at 0.01318 µM in assay [1] (read-out: SLIGRL-NH2 Ca^2+ mobilisation, antagonist response, Fig 1c source data, log[compound], M -7.88008, individual data points) is 91.2%. Further, the remaining activity at 0.00417 µM in assay [1] (read-out: SLIGRL-NH2 Ca^2+ mobilisation, antagonist response, Fig 1c source data, log[compound], M -8.37986, individual data points) was 97.2%. In assay [1] (read-out: SLIGRL-NH2 Ca^2+ mobilisation, antagonist response, Fig 1c source data, log[compound], M -8.87976, individual data points), the remaining activity at 0.001319 µM is 102%. For the same compound, the remaining activity at 3.33 µM in assay [2] (read-out: SLIGRL-NH2 phosphorylation of ERK1/2, antagonist response, Fig 1e source data, log[compound], M -5.47756, individual data points) was found to be 40.4%.
